Laboratory results as given in patent US20140057915A1, “KINASE INHIBITORS” (TOPIVERT PHARMA LIMITED, priority 2012, published 2014).

Assays:
GSK3α = GSK3α (Homo sapiens, UniProt P49840); assay: GSK 3α enzyme inhibition (FRET), Method 1; assay type: biochemical; conditions: Table 4a1
Experimental: (§1) The enzyme inhibitory activities of compounds disclosed herein are determined by FRET using synthetic peptides labelled with both donor and acceptor fluorophores (Z-LYTE, Invitrogen Ltd., Paisley, UK).
The following two assay variants are used for determination of GSK 3a inhibition.
The inhibitory activities of compounds of the invention against the GSK 3a enzyme isoform (Invitrogen), are evaluated by determining the level of activation/phosphorylation of the target peptide. The GSK3-α protein (500 ng/mL, 2.5 μL) is mixed with the test compound (2.5 μL at either 4 μg/mL, 0.4 μg/mL, 0.04 μg/mL, or 0.004 μg/mL) for 2 hr at RT. The FRET peptide (8 μM, 2.5 μL), which is a phosphorylation target for GSK3α, and ATP (40 μM, 2.5 μL) are then added to the enzyme/compound mixture and the resulting mixture incubated for 1 hr. Development reagent (protease, 5 μL) is added for 1 hr prior to detection in a fluorescence microplate reader (Varioskan® Flash, ThermoFisher Scientific).
(§2) In all cases, the site-specific protease cleaves non-phosphorylated peptide only and eliminates the FRET signal. Phosphorylation levels of each reaction are calculated using the ratio of coumarin emission (donor) over fluorescein emission (acceptor), for which high ratios indicate high phosphorylation and low ratios indicate low phosphorylation levels.

Syk = Syk (Homo sapiens, UniProt P43405); assay: Syk enzyme inhibition (FRET); assay type: biochemical; conditions: Table 4a1
Experimental: as §1
(§3) The relevant enzyme (3000 ng/mL or 2000 ng/mL respectively, 2.5 μL) is incubated with the test compound (either 4 μg/mL, 0.4 μg/mL, 0.04 μg/mL, or 0.004 μg/mL, 2.5 μL each) for 2 hr at RT. The FRET peptides (8 μM, 2.5 μL), and appropriate ATP solutions (2.5 μL, 800 μM for c-Src, and 60 μM ATP for Syk) are then added to the enzymes/compound mixtures and incubated for 1 hr. Development reagent (protease, 5 μL) is added for 1 hr prior to detection in a fluorescence microplate reader (Varioskan® Flash, ThermoFisher Scientific).
as §2

[1] = tested on: TNFα release, d-U937 cells; assay: LPS-induced TNFα release in d-U937 cells; assay type: cell-based; conditions: Homo sapiens, dU937; relative to 10 μg/mL BIRB796; Table 4c1; read-out: LPS Induced Release of Cytokine in d-U937 Cells, TNFα REC50
Experimental: (§4) (a) LPS-Induced TNFα/IL-8 Release in d-U937Cells
U937 cells, a human monocytic cell line, are differentiated into macrophage-type cells by incubation with PMA (100 ng/mL) for 48 to 72 hr. Cells are pre-incubated with final concentrations of test compound for 2 hr and are then stimulated with LPS (0.1 μg/mL; from E. Coli: 0111:B4, Sigma) for 4 hr. The supernatant is collected for determination of TNFα and IL-8 concentrations by sandwich ELISA (Duo-set, R&D systems). […] The relative 50% effective concentration (REC50) is determined from the resultant concentration-response curve. The inhibition of IL-8 production is calculated at each concentration of test compound by comparison with vehicle control.

d-U937 cells = assay: Cell viability: MTT assay; assay type: cell-based, human; conditions: 1 μg/mL
Experimental: (l) The Effect of Test Compounds on Cell Viability: MTT Assay
Differentiated U937 cells are pre-incubated with each test compound (final concentration 1 μg/mL or 10 μg/mL in 200 μL media indicated below) under two protocols: the first for 4 hr in 5% FCS RPMI1640 media and the second in 10% FCS RPMI1640 media for 24 h. The supernatant is replaced with new media (200 μL) and MTT stock solution (10 μL, 5 mg/mL) is added to each well. After incubation for 1 hr the media are removed, DMSO (200 μL) is added to each well and the plates are shaken lightly for 1 hr prior to reading the absorbance at 550 nm. The percentage loss of cell viability is calculated for each well relative to vehicle (0.5% DMSO) treatment. Consequently an apparent increase in cell viability for drug treatment relative to vehicle is tabulated as a negative percentage.

[2] = tested on: IL-8 release, d-U937 cells; assay: LPS-induced IL-8 release in d-U937 cells; assay type: cell-based; conditions: Homo sapiens, dU937; Table 4c1; read-out: LPS Induced Release of Cytokine in d-U937 Cells, IL-8 IC50
Experimental: as §4
U937 cells, a human monocytic cell line, are differentiated into macrophage-type cells by incubation with PMA (100 ng/mL) for 48 to 72 hr. Cells are pre-incubated with final concentrations of test compound for 2 hr and are then stimulated with LPS (0.1 μg/mL; from E. Coli: 0111:B4, Sigma) for 4 hr. […] The relative 50% effective concentration (REC50) is determined from the resultant concentration-response curve.

[3] = tested on: ICAM-1 expression, BEAS2B cells; assay: Poly I:C-induced ICAM-1 expression in BEAS2B cells; assay type: cell-based; conditions: Homo sapiens, BEAS-2B; read-out: Poly IC induced ICAM1 in BEAS2B, IC50
Experimental: (f) Poly I:C-Induced ICAM-1 Expression in BEAS2B Cells
Poly I:C is used in these studies as a simple, RNA virus mimic. Poly I:C-Oligofectamine mixture (1 μg/mL Poly I:C, ±2% Oligofectamine, 25 μL; Invivogen Ltd., San Diego, Calif., and Invitrogen, Carlsbad, Calif., respectively) is transfected into BEAS2B cells (human bronchial epithelial cells, ATCC). Cells are pre-incubated with final concentrations of test compounds for 2 hr and the level of ICAM1 expression on the cell surface is determined by cell-based ELISA. At a time point 18 hr after poly I:C transfection, cells are fixed with 4% formaldehyde in PBS (100 μL) and then endogenous peroxidase is quenched by the addition of washing buffer (100 μL, 0.05% Tween in PBS: PBS-Tween) containing 0.1% sodium azide and 1% hydrogen peroxide. Cells are washed with wash-buffer (3×200 μL). and after blocking the wells with 5% milk in PBS-Tween (100 μL) for 1 hr, the cells are incubated with anti-human ICAM-1 antibody (50 μL; Cell Signalling Technology, Danvers, Mass.) in 1% BSA PBS overnight at 4° C.
The cells are washed with PBS-Tween (3×200 μL) and incubated with the secondary antibody (100 μL; HRP-conjugated anti-rabbit IgG, Dako Ltd., Glostrup, Denmark). […] The ICAM-1 signal is detected by reading the absorbance at 450 nm against a reference wavelength of 655 nm using a spectrophotometer. The cells are then washed with PBS-Tween (3×200 μL) and total cell numbers in each well are determined by reading absorbance at 595 nm after Crystal Violet staining (50 μL of a 2% solution in PBS) and elution by 1% SDS solution (100 μL) in distilled water. The measured OD 450-655 readings are corrected for cell number by dividing with the OD595 reading in each well. The inhibition of ICAM-1 expression is calculated at each concentration of test compound by comparison with vehicle control.

cSrc = cSrc (Homo sapiens, UniProt P12931); assay: c-Src enzyme inhibition (FRET); assay type: biochemical; conditions: Table 4a1
cSrc, sequence (P12931 whole entry): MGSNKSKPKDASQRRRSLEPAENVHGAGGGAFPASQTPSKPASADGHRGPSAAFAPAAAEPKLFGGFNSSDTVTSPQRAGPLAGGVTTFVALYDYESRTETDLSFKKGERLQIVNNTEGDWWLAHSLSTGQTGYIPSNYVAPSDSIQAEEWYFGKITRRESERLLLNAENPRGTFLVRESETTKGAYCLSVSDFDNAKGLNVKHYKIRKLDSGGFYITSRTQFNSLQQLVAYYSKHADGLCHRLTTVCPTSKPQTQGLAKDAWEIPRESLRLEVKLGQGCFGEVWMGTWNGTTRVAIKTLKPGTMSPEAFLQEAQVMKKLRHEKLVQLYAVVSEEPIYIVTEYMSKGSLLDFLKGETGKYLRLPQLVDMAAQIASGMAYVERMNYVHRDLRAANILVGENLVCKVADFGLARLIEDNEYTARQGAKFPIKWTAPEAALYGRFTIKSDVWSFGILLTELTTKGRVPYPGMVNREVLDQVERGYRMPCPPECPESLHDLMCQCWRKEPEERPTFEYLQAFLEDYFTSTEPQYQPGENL
Experimental: as §1, §3, §2

GSK3α, sequence (P49840 whole entry): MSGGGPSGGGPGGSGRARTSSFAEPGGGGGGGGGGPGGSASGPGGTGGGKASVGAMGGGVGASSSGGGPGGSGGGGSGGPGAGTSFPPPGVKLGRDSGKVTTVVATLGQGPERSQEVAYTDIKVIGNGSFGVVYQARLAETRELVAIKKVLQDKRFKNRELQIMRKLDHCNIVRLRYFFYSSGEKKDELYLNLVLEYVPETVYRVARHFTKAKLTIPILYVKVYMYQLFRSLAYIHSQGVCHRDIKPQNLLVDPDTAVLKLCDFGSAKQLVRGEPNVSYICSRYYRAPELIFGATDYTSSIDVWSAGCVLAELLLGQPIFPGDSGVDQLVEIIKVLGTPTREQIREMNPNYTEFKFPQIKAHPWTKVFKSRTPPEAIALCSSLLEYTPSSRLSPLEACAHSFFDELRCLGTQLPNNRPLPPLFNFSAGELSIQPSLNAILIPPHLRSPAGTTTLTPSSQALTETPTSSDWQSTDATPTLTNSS

Compound | IC50 (GSK3α) | IC50 (Syk) | EC50 [1] | IC50 [2] | IC50 (cSrc) | Cell viability at time point in d-U937 cells, 4 h (d-U937 cells) | Cell viability at time point in d-U937 cells, 24 h (d-U937 cells) | IC50 [3]
COc1ccc(-n2nc(C(C)C)cc2NC(=O)Nc2ccc(Oc3ccnc(Nc4cccc(C(=O)NCCN5CCOCC5)c4)n3)c3ccccc23)cc1 [Example 20, 3-((4-((4-(3-(3-isopropyl-1-(4-methoxyphenyl)-1H-pyrazol-5-yl)ureido)naphthalen-1-yl)oxy)pyrimidin-2-yl)amino)-N-(2-morpholinoethyl)benzamide] | 317 nM | 15 nM | 1.4 nM |  |  | −ve (−ve and +ve indicate that the value is below and above respectively, the no significant effect threshold, defined as 30% inhibition at 1 μg/mL at the time point indicated) | −ve (−ve and +ve indicate that the value is below and above respectively, the no significant effect threshold, defined as 30% inhibition at 1 μg/mL at the time point indicated) | 
COc1ccc(-n2nc(C(C)(C)C)cc2NC(=O)Nc2ccc(Oc3ccnc(Nc4cc(OC)cc(C(=O)NCCN5CCOCC5)c4)n3)c3ccccc23)cc1 [Example 54, 3-((4-((4-(3-(3-(tert-butyl)-1-(4-methoxyphenyl)-1H-pyrazol-5-yl)ureido)naphthalen-1-yl)oxy)pyrimidin-2-yl)amino)-5-methoxy-N-(2-morpholinoethyl)benzamide] | 217 nM | 5 nM | 0.2 nM | 0.8 nM |  | −ve (−ve and +ve indicate that the value is below and above respectively, the no significant effect threshold, defined as 30% inhibition at 1 μg/mL at the time point indicated) | −ve (−ve and +ve indicate that the value is below and above respectively, the no significant effect threshold, defined as 30% inhibition at 1 μg/mL at the time point indicated) | 
COc1cc(Nc2nccc(Oc3ccc(NC(=O)Nc4cc(C(C)(C)C)nn4-c4ccc(OC)nc4)c4ccccc34)n2)cc(C(=O)NCCN2CCOCC2)c1 [Example 57, 3-((4-((4-(3-(3-(tert-butyl)-1-(6-methoxypyridin-3-yl)-1H-pyrazol-5-yl)ureido)naphthalen-1-yl)oxy)pyrimidin-2-yl)amino)-5-methoxy-N-(2-morpholinoethyl)benzamide] | 283 nM |  | 0.6 nM | 1.5 nM | < 1 nM | −ve (−ve and +ve indicate that the value is below and above respectively, the no significant effect threshold, defined as 30% inhibition at 1 μg/mL at the time point indicated) | −ve (−ve and +ve indicate that the value is below and above respectively, the no significant effect threshold, defined as 30% inhibition at 1 μg/mL at the time point indicated) | 1.9 nM

Now from value to molecule, other results behind:

IC50 (GSK3α) | IC50 (Syk) | EC50 [1] | IC50 [2] | IC50 (cSrc) | Compound | Cell viability at time point in d-U937 cells, 4 h (d-U937 cells) | Cell viability at time point in d-U937 cells, 24 h (d-U937 cells) | IC50 [3]
 | 865 nM | 0.7 nM | 1.4 nM | 37 nM | COc1cc(Nc2nccc(Oc3ccc(NC(=O)Nc4cc(C(C)C)nn4-c4ccc(C)cc4)c4ccccc34)n2)cc(C(=O)NCCO)c1 [Example 63, N-(2-hydroxyethyl)-3-((4-((4-(3-(3-isopropyl-1-(p-tolyl)-1H-pyrazol-5-yl)ureido)naphthalen-1-yl)oxy)pyrimidin-2-yl)amino)-5-methoxybenzamide] | −ve (−ve and +ve indicate that the value is below and above respectively, the no significant effect threshold, defined as 30% inhibition at 1 μg/mL at the time point indicated) | −ve (−ve and +ve indicate that the value is below and above respectively, the no significant effect threshold, defined as 30% inhibition at 1 μg/mL at the time point indicated) | 10.1 nM
> 13000 nM | 20 nM |  | 1.5 nM | 8 nM | C=C(C)c1cc(NC(=O)Nc2ccc(Oc3ccnc(Nc4cc(OC)cc(C(=O)NCCN5CCOCC5)c4)n3)c3ccccc23)n(-c2ccc(OC)cc2)n1 [Example 86, 3-Methoxy-5-((4-((4-(3-(1-(4-methoxyphenyl)-3-(prop-1-en-2-yl)-1H-pyrazol-5-yl)ureido)naphthalen-1-yl)oxy)pyrimidin-2-yl)amino)-N-(2-morpholinoethyl)-benzamide] | −ve (−ve and +ve indicate that the value is below and above respectively, the no significant effect threshold, defined as 30% inhibition at 1 μg/mL at the time point indicated) | −ve (−ve and +ve indicate that the value is below and above respectively, the no significant effect threshold, defined as 30% inhibition at 1 μg/mL at the time point indicated) | 
3520 nM | 131 nM |  |  | < 1.3 nM | COc1ccc(-n2nc(C(C)(C)C)cc2NC(=O)Nc2ccc(Oc3cc(Nc4cc(OC)cc(C(=O)NCCN5CCOCC5)c4)ncn3)c(C)c2C)cc1 [Example 91, 3-((6-(4-(3-(3-(tert-Butyl)-1-(4-methoxyphenyl)-1H-pyrazol-5-yl)ureido)-2,3-dimethylphenoxy)pyrimidin-4-yl)amino)-5-methoxy-N-(2-morpholinoethyl)benzamide] |  |  | 
